25 compounds from patent publication US9512141B2, “Pyrazine derivatives as CB2 receptor agonists” (Hoffmann-La Roche Inc., priority 2012, dated 2016) can be followed below.

One assay concerns the target human CB2 receptors (Homo sapiens (Human), UniProt P34972). Briefly: cAMP assay (functional), CHO cells expressing human CB2 receptors. It counts as cell-based. As for the experimental part: (§1) CHO cells expressing human CB1 or CB2 receptors are seeded 17-24 hours prior to the experiment 50.000 cells per well in a black 96 well plate with flat clear bottom (Corning Costar #3904) in DMEM (Invitrogen No. 31331), 1×HT supplement, with 10% fetal calf serum and incubated at 5% CO2 and 37° C. in a humidified incubator. The growth medium was exchanged with Krebs Ringer Bicarbonate buffer with 1 mM IBMX and incubated at 30° C. for 30 min. Compounds were added to a final assay volume of 100 μl and incubated for 30 min at 30° C. Using the cAMP-Nano-TRF detection kit the assay (Roche Diagnostics) was stopped by the addition of 50 μl lysis reagent (Tris, NaCl, 1.5% Triton X100, 2.5% NP40, 10% NaN3) and 50 μl detection solutions (20 μM mAb Alexa700-cAMP 1:1, and 48 μM Ruthenium-2-AHA-cAMP) and shaken for 2 h at room temperature. The time-resolved energy transfer is measured by a TRF reader (Evotec Technologies GmbH), equipped with a ND:YAG laser as excitation source. The plate is measured twice with the excitation at 355 nm and at the emission with a delay of 100 ns and a gate of 100 ns, total exposure time 10 s at 730 (bandwidth 30 nm) or 645 nm (bandwidth 75 nm), respectively. The FRET signal is calculated as follows: FRET=T730-Alexa730-P (T645-B645) with P=Ru730-B730/Ru645-B645, where T730 is the test well measured at […], T645 is the test well measured at 645 nm, B730 and B645 are the buffer controls at 730 nm and 645 nm, respectively. cAMP content is determined from the function of a standard curve spanning from 10 μM to 0.13 nM cAMP.
(§2) EC50 values were determined using Activity Base analysis (ID Business Solution, Limited). The EC50 values for a wide range of cannabinoid agonists generated from this assay were in agreement with the values published in the scientific literature.

A further assay deals with human CB1 receptors (Homo sapiens (Human), UniProt P21554). Put plainly: cAMP assay (functional), CHO cells expressing human CB1 receptors. It counts as cell-based. As to the method:
as §1, §2
(In general: Cyclic AMP is a second messenger, typically raised through Gs and lowered through Gi signalling.)

The mark [1] stands for this setting: functional cAMP assay, CHO cells expressing human CB2, read-out: human CB2 EC50.
The mark [2] stands for this setting: functional cAMP assay, CHO cells expressing human CB1, read-out: human CB1 EC50.

Each structure is given as a SMILES string. Like-named read-outs stand apart in the source and are kept apart here. A value given as a limit tells only on which side of the number the result lay.

Sequence of human CB2 receptors (P34972 whole entry): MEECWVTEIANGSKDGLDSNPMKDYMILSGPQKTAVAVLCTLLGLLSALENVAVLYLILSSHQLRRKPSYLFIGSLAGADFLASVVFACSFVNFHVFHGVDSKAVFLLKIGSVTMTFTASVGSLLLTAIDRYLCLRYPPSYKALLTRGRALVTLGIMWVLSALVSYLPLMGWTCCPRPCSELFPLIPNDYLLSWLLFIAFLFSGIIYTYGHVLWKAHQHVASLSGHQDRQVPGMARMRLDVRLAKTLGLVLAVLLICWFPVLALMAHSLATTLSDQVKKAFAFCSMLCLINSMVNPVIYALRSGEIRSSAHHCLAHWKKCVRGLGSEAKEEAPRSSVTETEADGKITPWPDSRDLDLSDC
Sequence of human CB1 receptors (P21554 whole entry): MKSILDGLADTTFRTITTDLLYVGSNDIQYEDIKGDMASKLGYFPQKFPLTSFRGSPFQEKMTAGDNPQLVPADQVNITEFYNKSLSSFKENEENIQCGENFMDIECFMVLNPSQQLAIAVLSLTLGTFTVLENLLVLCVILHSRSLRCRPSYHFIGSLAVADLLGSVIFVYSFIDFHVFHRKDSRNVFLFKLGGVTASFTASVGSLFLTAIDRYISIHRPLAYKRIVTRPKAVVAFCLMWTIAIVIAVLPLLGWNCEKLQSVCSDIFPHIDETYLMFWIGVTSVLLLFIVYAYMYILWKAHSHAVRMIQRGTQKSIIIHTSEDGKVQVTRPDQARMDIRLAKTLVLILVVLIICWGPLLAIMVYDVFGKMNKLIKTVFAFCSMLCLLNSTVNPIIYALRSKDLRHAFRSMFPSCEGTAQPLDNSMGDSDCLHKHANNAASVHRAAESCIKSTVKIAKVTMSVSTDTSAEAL

In general, EC50 refers to the concentration at which the effect is half-maximal. For `COC(=O)[C@H]1CCCN1C(=O)c1cnc(N2CC(F)(F)C2)c(OCC2CC2)n1` [Example 22, (R)-1-[6-Cyclopropylmethoxy-5-(3,3-difluoro-azetidin-1-yl)-pyrazine-2-carbonyl]-pyrrolidine-2-carboxylic acid methyl ester], the results for the EC50 on human CB2 receptors (setting [1]) and at human CB1 receptors (setting [2]) were 0.252 µM and over 10 µM, respectively.

Take `O=C(c1cnc(C2CC2)c(OCC2CC2)n1)N1CCOCC12CC2` [Example 17, (5-Cyclopropyl-6-cyclopropylmethoxy-pyrazin-2-yl)-(7-oxa-4-aza-spiro[2.5]oct-4-yl)-methanone]: the figures for the half-maximal effective concentration (EC50) at human CB2 receptors (setting [1]) and on human CB1 receptors (setting [2]) were 0.14 µM and over 10 µM, respectively.

As to `O=C(c1cnc(N2CC(F)(F)C2)c(OCC2CC2)n1)N1CCOCC12CC2` [Example 10, [6-Cyclopropylmethoxy-5-(3,3-difluoro-azetidin-1-yl)-pyrazin-2-yl]-(7-oxa-4-aza-spiro[2.5]oct-4-yl)-methanone], the values for the EC50 at human CB2 receptors (setting [1]) and at human CB1 receptors (setting [2]) were 0.015 µM and over 10 µM, respectively.

For `CC1(C)CC(C(N)=O)N(C(=O)c2cnc(N3CC(F)(F)C3)c(OCC3CC3)n2)C1` (single isomer, unassigned; (-)) [Example 38, (−)-1-[6-Cyclopropylmethoxy-5-(3,3-difluoro-azetidin-1-yl)-pyrazine-2-carbonyl]-4,4-dimethyl-pyrrolidine-2-carboxylic acid amide], the results for the EC50 at human CB2 receptors (setting [1]) and on human CB1 receptors (setting [2]) were 0.0014 µM and over 10 µM, respectively.

With `CC1(O)C[C@@H](C(N)=O)N(C(=O)c2cnc(N3CC(F)(F)C3)c(OCC3CC3)n2)C1` (stereo partly drawn) [Example 41, (2S)-1-[6-(Cyclopropylmethoxy)-5-(3,3-difluoroazetidin-1-yl)pyrazine-2-carbonyl]-4-hydroxy-4-methylpyrrolidine-2-carboxamide], the EC50 on human CB2 receptors (setting [1]) was 0.09 µM; at human CB1 receptors (setting [2]) it was over 10 µM.

As to `O=C(c1cnc(N2CC(F)(F)C2)c(OCC2CC2)n1)N1CC(F)(F)C(F)(F)C1` [Example 30, [6-Cyclopropylmethoxy-5-(3,3-difluoro-azetidin-1-yl)-pyrazin-2-yl]-(3,3,4,4-tetrafluoro-pyrrolidin-1-yl)-methanone], the EC50 is 0.0263 µM on human CB2 receptors (setting [1]) and over 10 µM at human CB1 receptors (setting [2]).

In the case of `C[C@@H]1CCCN1C(=O)c1cnc(C2CC2)c(OCC2CC2)n1` [Example 1, (5-Cyclopropyl-6-cyclopropylmethoxy-pyrazin-2-yl)-((R)-2-methyl-pyrrolidin-1-yl)-methanone], the results for the EC50 on human CB2 receptors (setting [1]) and on human CB1 receptors (setting [2]) were 0.0573 µM and over 10 µM, respectively.

On to `O=C(c1cnc(C2CC2)c(OCC2CC2)n1)N1CC(F)(F)C(F)(F)C1` [Example 26, (5-Cyclopropyl-6-cyclopropylmethoxy-pyrazin-2-yl)-(3,3,4,4-tetrafluoro-pyrrolidin-1-yl)-methanone], for which the EC50 is 0.124 µM on human CB2 receptors (setting [1]) and over 10 µM at human CB1 receptors (setting [2]).

As to `CC1(C)CCCN1C(=O)c1cnc(N2CC(F)(F)C2)c(OCC2CC2)n1` [Example 21, [6-Cyclopropylmethoxy-5-(3,3-difluoro-azetidin-1-yl)-pyrazin-2-yl]-(2,2-dimethyl-pyrrolidin-1-yl)-methanone], the EC50 on human CB2 receptors (setting [1]) was 0.0043 µM; on human CB1 receptors (setting [2]), over 10 µM.

As for `NC(=O)C1CCCCN1C(=O)c1cnc(N2CC(F)(F)C2)c(OCC2CC2)n1` (centres unmarked) [Example 33, 1-[6-Cyclopropylmethoxy-5-(3,3-difluoro-azetidin-1-yl)-pyrazine-2-carbonyl]-piperidine-2-carboxylic acid amide], the EC50 at human CB2 receptors (setting [1]) was 0.33 µM; on human CB1 receptors (setting [2]), over 10 µM.

For `O=C(c1cnc(N2CC(F)(F)C2)c(OCC2CC2)n1)N1CCC2(COC2)C1` [Example 28, [6-Cyclopropylmethoxy-5-(3,3-difluoro-azetidin-1-yl)-pyrazin-2-yl]-(2-oxa-6-aza-spiro[3.4]oct-6-yl)-methanone], the 50% effective concentration (EC50) at human CB2 receptors (setting [1]) is 0.204 µM; on human CB1 receptors (setting [2]) it was over 10 µM.

`CC1(C)CC(C(N)=O)N(C(=O)c2cnc(N3CC(F)(F)C3)c(OCC3CC3)n2)C1` (centres unmarked) [Example 35, 1-[6-Cyclopropylmethoxy-5-(3,3-difluoro-azetidin-1-yl)-pyrazine-2-carbonyl]-4,4-dimethyl-pyrrolidine-2-carboxylic acid amide]: the figures for the EC50 at human CB2 receptors (setting [1]) and on human CB1 receptors (setting [2]) were 0.0115 µM and over 10 µM, respectively.

Consider `CC1(C)CN(C(=O)c2cnc(N3CC(F)(F)C3)c(OCC3CC3)n2)CCO1` [Example 13, [6-Cyclopropylmethoxy-5-(3,3-difluoro-azetidin-1-yl)-pyrazin-2-yl]-(2,2-dimethyl-morpholin-4-yl)-methanone], for which the values for the EC50 on human CB2 receptors (setting [1]) and on human CB1 receptors (setting [2]) were 0.0685 µM and over 10 µM, respectively.

As to `NC(=O)C1CSCCN1C(=O)c1cnc(N2CC(F)(F)C2)c(OCC2CC2)n1` (single isomer, unassigned; (-)) [Example 37, (−)-4-[6-Cyclopropylmethoxy-5-(3,3-difluoro-azetidin-1-yl)-pyrazine-2-carbonyl]-thiomorpholine-3-carboxylic acid amide], the EC50 on human CB2 receptors (setting [1]) was 0.308 µM; at human CB1 receptors (setting [2]), over 10 µM.

Consider `CCOC(=O)CN(C(=O)c1cnc(N2CC(F)(F)C2)c(OCC2CC2)n1)C(C)(C)C` [Example 11, {tert-Butyl-[6-cyclopropylmethoxy-5-(3,3-difluoro-azetidin-1-yl)-pyrazine-2-carbonyl]-amino}-acetic acid ethyl ester], for which the values for the EC50 on human CB2 receptors (setting [1]) and at human CB1 receptors (setting [2]) were 0.0068 µM and over 10 µM, respectively.

As for `NC(=O)C1CCCCN1C(=O)c1cnc(N2CC(F)(F)C2)c(OCC2CC2)n1` (single isomer, unassigned; (-)) [Example 36, (−)-1-[6-Cyclopropylmethoxy-5-(3,3-difluoro-azetidin-1-yl)-pyrazine-2-carbonyl]-piperidine-2-carboxylic acid amide], the EC50 was 0.217 µM on human CB2 receptors (setting [1]) and over 10 µM on human CB1 receptors (setting [2]).

For the compound `CN(C(=O)c1cnc(N2CC(F)(F)C2)c(OCC2CC2)n1)C(C)(C)C` [Example 7, 6-Cyclopropylmethoxy-5-(3,3-difluoro-azetidin-1-yl)-pyrazine-2-carboxylic acid tert-butyl-methyl-amide], the EC50 on human CB2 receptors (setting [1]) was 0.0032 µM; at human CB1 receptors (setting [2]), over 10 µM.

With `CC1(C)CCCN1C(=O)c1cnc(N2CC(F)(F)C2)c(OCC(F)(F)F)n1` [Example 32, [5-(3,3-Difluoro-azetidin-1-yl)-6-(2,2,2-trifluoro-ethoxy)-pyrazin-2-yl]-(2,2-dimethyl-pyrrolidin-1-yl)-methanone], the EC50 at human CB2 receptors (setting [1]) is 0.0812 µM; on human CB1 receptors (setting [2]), over 10 µM.

`NC(=O)[C@@H]1CC(F)(F)CN1C(=O)c1cnc(N2CC(F)(F)C2)c(OCC2CC2)n1` [Example 19, (S)-1-[6-Cyclopropylmethoxy-5-(3,3-difluoro-azetidin-1-yl)-pyrazine-2-carbonyl]-4,4-difluoro-pyrrolidine-2-carboxylic acid amide]: the half-maximal effective concentration (EC50) at human CB2 receptors (setting [1]) was 0.0057 µM; on human CB1 receptors (setting [2]), over 10 µM.

As to `COCC(C)(C)N(C)C(=O)c1cnc(N2CC(F)(F)C2)c(OCC2CC2)n1` [Example 12, 6-Cyclopropylmethoxy-5-(3,3-difluoro-azetidin-1-yl)-pyrazine-2-carboxylic acid (2-methoxy-1,1-dimethyl-ethyl)-methyl-amide], the results for the EC50 on human CB2 receptors (setting [1]) and at human CB1 receptors (setting [2]) were 0.0092 µM and over 10 µM, respectively.

Consider `CC(=O)OC1(C)CCN(C(=O)c2cnc(C3CC3)c(OCC3CC3)n2)C1` (centres unmarked) [Example 25, Acetic acid 1-(5-cyclopropyl-6-cyclopropylmethoxy-pyrazine-2-carbonyl)-3-methyl-pyrrolidin-3-yl ester], for which the EC50 on human CB2 receptors (setting [1]) was 0.11 µM; at human CB1 receptors (setting [2]), over 10 µM.

As to `CN(C(=O)c1cnc(N2CC(F)(F)C2)c(OCC(F)(F)F)n1)C(C)(C)C` [Example 31, 5-(3,3-Difluoro-azetidin-1-yl)-6-(2,2,2-trifluoro-ethoxy)-pyrazine-2-carboxylic acid tert-butyl-methyl-amide], the EC50 on human CB2 receptors (setting [1]) is 0.13 µM; at human CB1 receptors (setting [2]) it was over 10 µM.

Regarding `C[C@H]1CCCN1C(=O)c1cnc(N2CC(F)(F)C2)c(OCC2CC2)n1` [Example 5, [6-Cyclopropylmethoxy-5-(3,3-difluoro-azetidin-1-yl)-pyrazin-2-yl]-((S)-2-methyl-pyrrolidin-1-yl)-methanone], the concentration giving a half-maximal response (EC50) at human CB2 receptors (setting [1]) was 0.0817 µM; on human CB1 receptors (setting [2]) it was over 10 µM.

Consider `O=C1CN(C(=O)c2cnc(N3CC(F)(F)C3)c(OCC3CC3)n2)CCO1` [Example 23, 4-[6-Cyclopropylmethoxy-5-(3,3-difluoro-azetidin-1-yl)-pyrazine-2-carbonyl]-morpholin-2-one], for which the EC50 was 0.0184 µM at human CB2 receptors (setting [1]) and over 10 µM on human CB1 receptors (setting [2]).

For `NC(=O)C1CC2(CC2)CN1C(=O)c1cnc(N2CC(F)(F)C2)c(OCC2CC2)n1` (racemic) [Example 40, (±)-5-[6-(Cyclopropylmethoxy)-5-(3,3-difluoroazetidin-1-yl)pyrazine-2-carbonyl]-5-azaspiro[2.4]heptane-6-carboxamide], the EC50 on human CB2 receptors was 0.039 µM; on human CB1 receptors, over 10 µM.
